The target in data set [1] is D(2) dopamine receptor (Homo sapiens) (UniProt P14416). The following applies: Compound concentration 10.0 uM.
Data set [2] deals with Endothelin receptor type B (Homo sapiens) (UniProt P24530). The data set can be described thus: ETB (h) Ligand binding assay. As to conditions: Compound concentration 10.0 uM.
The target in the next data set is Aurora kinase B (Homo sapiens, UniProt Q96GD4). The data set can be described thus: Inhibition of AURKB at compound concentration of 10.0 uM using the ScanMax (DiscoverX).
Data set [3] concerns the target 5-hydroxytryptamine receptor 2A (Homo sapiens) (UniProt P28223). The data set can be described thus: 5-HT2A (h) Ligand binding assay. As to conditions: Compound concentration 10.0 uM.
Data set [4] concerns the target Serine/threonine-protein kinase BRSK2 (Homo sapiens, UniProt Q8IWQ3). Description: Inhibition of BRSK2 at compound concentration of 10.0 uM using the ScanMax (DiscoverX).
Data set [5] concerns the target 5-hydroxytryptamine receptor 5A (Homo sapiens) (UniProt P47898). Description: 5-HT5A (h) Ligand binding assay. The following applies: Compound concentration 10.0 uM.
Data set [6] deals with Cannabinoid receptor 1 (Homo sapiens) (UniProt P21554). The data set can be described thus: CB1 (h) (central) Ligand binding assay.
Cannabinoid receptor 1 (Homo sapiens), sequence (P21554 whole entry): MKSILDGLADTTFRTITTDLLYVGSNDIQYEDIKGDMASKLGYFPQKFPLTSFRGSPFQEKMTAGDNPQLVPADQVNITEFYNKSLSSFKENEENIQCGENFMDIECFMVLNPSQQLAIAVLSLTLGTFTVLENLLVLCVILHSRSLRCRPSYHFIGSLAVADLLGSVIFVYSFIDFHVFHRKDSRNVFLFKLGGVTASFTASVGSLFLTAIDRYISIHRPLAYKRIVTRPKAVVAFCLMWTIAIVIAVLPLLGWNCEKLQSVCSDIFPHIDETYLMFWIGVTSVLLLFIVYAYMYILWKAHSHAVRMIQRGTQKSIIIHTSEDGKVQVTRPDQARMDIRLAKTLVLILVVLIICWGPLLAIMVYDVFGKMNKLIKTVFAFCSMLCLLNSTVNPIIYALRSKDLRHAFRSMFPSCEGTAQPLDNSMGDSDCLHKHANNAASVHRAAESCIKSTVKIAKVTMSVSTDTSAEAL
The target of a further data set is sodium channel (site 2) (Homo sapiens, UniProt P35498+P35499+Q01118+Q14524+Q15858+Q99250+Q9NY46+Q9UI33+Q9UQD0+Q9Y5Y9). Description: Na+ channel (site 2) Ligand binding assay. The data set is classed as protein assay.
Data set [7] concerns the target Somatostatin receptor (Homo sapiens) (UniProt P35346+P30874+P31391+P30872+P32745). Description: Somatostatin Ligand binding assay. The data set is classed as protein assay. The following applies: Compound concentration 10.0 uM.
In data set [8] the target is Nociceptin receptor (Homo sapiens) (UniProt P41146). Description: ORL-1 (h) Ligand binding assay. The following applies: Compound concentration 10.0 uM.
Nociceptin receptor (Homo sapiens), sequence (P41146 whole entry): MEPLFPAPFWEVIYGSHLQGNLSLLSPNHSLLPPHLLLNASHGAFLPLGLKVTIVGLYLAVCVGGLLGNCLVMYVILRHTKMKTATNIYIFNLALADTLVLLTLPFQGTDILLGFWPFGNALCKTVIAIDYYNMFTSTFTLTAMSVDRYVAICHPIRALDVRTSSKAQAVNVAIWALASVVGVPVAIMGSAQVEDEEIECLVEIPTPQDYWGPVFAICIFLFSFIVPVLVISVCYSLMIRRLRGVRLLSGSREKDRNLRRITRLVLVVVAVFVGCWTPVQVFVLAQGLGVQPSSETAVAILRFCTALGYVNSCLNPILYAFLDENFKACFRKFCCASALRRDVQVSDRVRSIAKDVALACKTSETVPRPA
Data set [9] concerns the target Neuromedin-K receptor (Homo sapiens) (UniProt P29371). The data set can be described thus: NK3 (h) Ligand binding assay. The following applies: Compound concentration 10.0 uM.
For data set [10], the target named is P2Y receptor (Homo sapiens) (UniProt Q9H244+P51582+P47900+P41231+Q15391+Q15077+Q96G91+Q9BPV8). Description: P2Y Ligand binding assay. The data set is classed as protein assay. The following applies: Compound concentration 10.0 uM.
The target in data set [11] is Muscarinic acetylcholine receptor M2 (Homo sapiens) (UniProt P08172). Description: M2 (h) Ligand binding assay. As to conditions: Compound concentration 10.0 uM.
Data set [12] deals with Gastrin/cholecystokinin type B receptor (Homo sapiens) (UniProt P32239). Description: CCKB (h) Ligand binding assay. The following applies: Compound concentration 10.0 uM.
Gastrin/cholecystokinin type B receptor (Homo sapiens), sequence (P32239 whole entry): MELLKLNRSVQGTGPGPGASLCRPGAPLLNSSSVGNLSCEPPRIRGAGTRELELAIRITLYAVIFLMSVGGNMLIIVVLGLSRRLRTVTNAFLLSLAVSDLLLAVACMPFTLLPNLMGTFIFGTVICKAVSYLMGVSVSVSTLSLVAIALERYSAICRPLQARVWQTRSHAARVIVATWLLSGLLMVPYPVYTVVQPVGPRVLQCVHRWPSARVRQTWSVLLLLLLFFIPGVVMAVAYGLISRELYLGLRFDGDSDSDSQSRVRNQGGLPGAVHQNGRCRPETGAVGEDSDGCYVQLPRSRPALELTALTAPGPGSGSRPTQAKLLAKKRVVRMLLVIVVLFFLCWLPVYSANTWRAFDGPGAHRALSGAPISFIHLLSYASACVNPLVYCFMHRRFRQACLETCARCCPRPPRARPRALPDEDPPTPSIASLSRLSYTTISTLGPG
Data set [13] concerns the target Histamine H2 receptor (Homo sapiens) (UniProt P25021). The data set can be described thus: H2 Ligand binding assay. The following applies: Compound concentration 10.0 uM.
Data set [14] in a line: GABA (non selective) Ligand binding assay. As to conditions: Compound concentration 10.0 uM.
For data set [15], the target named is T1, Histamine H1 receptor (Homo sapiens, UniProt P35367). The data set can be described thus: H1 (central) Ligand binding assay. As to conditions: Compound concentration 10.0 uM.
T1 sequence (P35367 whole entry): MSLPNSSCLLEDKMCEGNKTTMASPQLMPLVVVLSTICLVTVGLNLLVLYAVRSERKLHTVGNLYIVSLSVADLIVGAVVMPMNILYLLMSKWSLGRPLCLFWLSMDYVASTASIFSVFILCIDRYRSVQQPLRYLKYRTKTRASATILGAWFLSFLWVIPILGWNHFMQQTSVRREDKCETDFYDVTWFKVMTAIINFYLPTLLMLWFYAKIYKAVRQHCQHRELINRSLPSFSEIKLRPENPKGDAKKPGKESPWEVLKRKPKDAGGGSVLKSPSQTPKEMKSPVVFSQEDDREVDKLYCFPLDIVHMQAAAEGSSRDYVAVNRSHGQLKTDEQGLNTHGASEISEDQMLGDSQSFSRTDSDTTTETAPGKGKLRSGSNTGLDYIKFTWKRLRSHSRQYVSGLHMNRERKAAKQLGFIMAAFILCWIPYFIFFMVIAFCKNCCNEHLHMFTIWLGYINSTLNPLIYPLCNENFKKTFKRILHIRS
Data set [16] has as its target T2, 5-hydroxytryptamine receptor 3A (Homo sapiens) (UniProt P46098).
T2 sequence (whole entry): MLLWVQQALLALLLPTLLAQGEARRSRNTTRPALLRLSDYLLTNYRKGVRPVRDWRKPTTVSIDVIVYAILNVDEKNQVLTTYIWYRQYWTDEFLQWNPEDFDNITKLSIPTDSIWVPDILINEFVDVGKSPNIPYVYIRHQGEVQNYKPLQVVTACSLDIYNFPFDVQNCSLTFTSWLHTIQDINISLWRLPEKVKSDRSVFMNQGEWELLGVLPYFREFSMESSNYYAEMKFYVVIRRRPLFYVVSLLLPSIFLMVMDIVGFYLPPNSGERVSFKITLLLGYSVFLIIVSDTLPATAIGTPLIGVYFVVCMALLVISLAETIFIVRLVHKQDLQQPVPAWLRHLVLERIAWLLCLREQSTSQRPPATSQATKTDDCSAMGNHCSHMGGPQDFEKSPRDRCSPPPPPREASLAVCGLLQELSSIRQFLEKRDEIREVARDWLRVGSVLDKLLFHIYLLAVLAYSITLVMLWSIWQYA
Description: 5-HT3 (h) Ligand binding assay. The following applies: Compound concentration 10.0 uM.

A short description of data set [17]: Scintillation proximity assay (SPA). The arrangement: species or system Homo sapiens. (In general: Scintillation proximity formats need no separation of bound from free tracer.)
Data set [18] addresses T1, Histamine H1 receptor. Description: GPCRScan assay: inhibition of H1. Further details: radioligand conc. used [nm] 0.6 – 2.0, parental cells stable HEK.
For data set [19], the target named is Kappa-type opioid receptor (Homo sapiens) (UniProt P41145). Description: Kappa (h) Ligand binding assay. The following applies: Compound concentration 10.0 uM.
The nature of data set [20]: Cl- ionophore Ligand binding assay.
Data set [21] deals with Alpha-1D adrenergic receptor (Homo sapiens) (UniProt P25100). As to conditions: Compound concentration 10.0 uM.
For data set [22], the target named is Cyclin-dependent kinase 7 (Homo sapiens, UniProt P50613). The data set can be described thus: Inhibition of CDK7 at compound concentration of 10.0 uM using the ScanMax (DiscoverX).
Cyclin-dependent kinase 7, sequence (P50613 whole entry): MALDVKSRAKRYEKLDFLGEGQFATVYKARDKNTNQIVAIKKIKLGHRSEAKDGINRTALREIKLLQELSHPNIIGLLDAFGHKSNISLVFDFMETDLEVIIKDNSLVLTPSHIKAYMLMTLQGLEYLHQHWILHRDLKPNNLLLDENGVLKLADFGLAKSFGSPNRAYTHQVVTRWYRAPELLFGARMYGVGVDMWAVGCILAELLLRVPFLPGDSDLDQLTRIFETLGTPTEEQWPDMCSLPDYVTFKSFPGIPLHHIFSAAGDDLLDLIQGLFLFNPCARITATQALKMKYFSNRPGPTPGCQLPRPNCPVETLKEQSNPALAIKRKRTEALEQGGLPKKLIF
Data set [23] has as its target T3, D(4) dopamine receptor (Homo sapiens) (UniProt P21917).
T3 sequence (whole entry): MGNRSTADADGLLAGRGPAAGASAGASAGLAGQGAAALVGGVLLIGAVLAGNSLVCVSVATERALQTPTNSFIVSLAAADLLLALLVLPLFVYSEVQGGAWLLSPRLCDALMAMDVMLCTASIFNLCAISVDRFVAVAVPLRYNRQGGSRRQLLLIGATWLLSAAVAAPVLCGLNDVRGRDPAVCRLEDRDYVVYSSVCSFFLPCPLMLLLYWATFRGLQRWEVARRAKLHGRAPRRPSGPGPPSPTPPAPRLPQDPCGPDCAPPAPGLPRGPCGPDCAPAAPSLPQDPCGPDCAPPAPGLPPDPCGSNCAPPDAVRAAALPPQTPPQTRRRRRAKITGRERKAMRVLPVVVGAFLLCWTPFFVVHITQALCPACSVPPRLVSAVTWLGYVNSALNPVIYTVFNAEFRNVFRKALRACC
Description: D4.4 (h) Ligand binding assay. As to conditions: Compound concentration 10.0 uM.

For data set [24], the target named is Vasopressin V1a receptor (Homo sapiens) (UniProt P37288). Description: V1a (h) Ligand binding assay. The following applies: Compound concentration 10.0 uM.
The target in data set [25] is Adrenergic receptor alpha-2 (Homo sapiens) (UniProt P08913+P18825+P18089). The data set can be described thus: alpha2 (non-selective) Ligand binding assay. As to conditions: Compound concentration 10.0 uM. The data set is classed as protein assay.
Data set [26] addresses Prostacyclin receptor (Homo sapiens) (UniProt P43119). Description: PGI2 (h) Ligand binding assay. As to conditions: Compound concentration 10.0 uM.
Another data set has as its target Ephrin type-A receptor 1 (Homo sapiens, UniProt P21709). The data set can be described thus: Inhibition of EPHA1 at compound concentration of 10.0 uM using the ScanMax (DiscoverX).
Data set [27] deals with Vasoactive intestinal polypeptide receptor 1 (Homo sapiens) (UniProt P32241). The data set can be described thus: VIP1 (h) Ligand binding assay.
Vasoactive intestinal polypeptide receptor 1 (Homo sapiens), sequence (P32241 whole entry): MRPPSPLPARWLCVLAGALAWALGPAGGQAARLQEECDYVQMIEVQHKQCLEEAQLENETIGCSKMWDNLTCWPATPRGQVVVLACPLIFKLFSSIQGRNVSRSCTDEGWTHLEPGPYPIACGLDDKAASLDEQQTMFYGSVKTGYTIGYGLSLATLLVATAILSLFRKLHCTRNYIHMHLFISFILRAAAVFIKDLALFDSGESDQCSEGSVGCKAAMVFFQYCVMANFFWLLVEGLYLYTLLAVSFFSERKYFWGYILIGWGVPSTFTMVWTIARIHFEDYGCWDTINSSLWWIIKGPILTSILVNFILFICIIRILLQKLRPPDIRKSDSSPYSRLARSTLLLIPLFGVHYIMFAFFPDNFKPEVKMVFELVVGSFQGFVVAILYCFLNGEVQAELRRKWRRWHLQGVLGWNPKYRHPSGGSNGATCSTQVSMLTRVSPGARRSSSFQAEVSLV
The target of data set [28] is Type-2 angiotensin II receptor (Homo sapiens) (UniProt P50052). Description: AT2 (h) Ligand binding assay. The following applies: Compound concentration 10.0 uM.
Data set [29] deals with Bombesin receptor (Homo sapiens) (UniProt P28336+P32247+P30550). Description: Bombesin Ligand binding assay. The data set is classed as protein assay. As to conditions: Compound concentration 10.0 uM.
Data set [30] addresses Endothelin-1 receptor (Homo sapiens) (UniProt P25101). The data set can be described thus: ETA (h) Ligand binding assay. The following applies: Compound concentration 10.0 uM.
Data set [31] has as its target C-C chemokine receptor type 1 (Homo sapiens) (UniProt P32246). Description: CCR1 (h) Ligand binding assay. As to conditions: Compound concentration 10.0 uM.
The target in data set [32] is Neuropeptide Y receptor type 2 (Homo sapiens) (UniProt P49146). The data set can be described thus: Y2 (h) Ligand binding assay. As to conditions: Compound concentration 10.0 uM.

SMILES strings stand for the structures. Calls of active or inactive are those of the source. No cut-off for these calls is given here.

One may read the inhibition as the drop in the measured response relative to a control, in per cent. For orientation: Kd means the equilibrium constant for the complex coming apart. By IC50 is commonly meant the concentration that gives 50% inhibition. For orientation: Ki means the equilibrium dissociation constant of an inhibitor or competing ligand from its target.

Prostacyclin receptor (Homo sapiens), sequence (P43119 whole entry): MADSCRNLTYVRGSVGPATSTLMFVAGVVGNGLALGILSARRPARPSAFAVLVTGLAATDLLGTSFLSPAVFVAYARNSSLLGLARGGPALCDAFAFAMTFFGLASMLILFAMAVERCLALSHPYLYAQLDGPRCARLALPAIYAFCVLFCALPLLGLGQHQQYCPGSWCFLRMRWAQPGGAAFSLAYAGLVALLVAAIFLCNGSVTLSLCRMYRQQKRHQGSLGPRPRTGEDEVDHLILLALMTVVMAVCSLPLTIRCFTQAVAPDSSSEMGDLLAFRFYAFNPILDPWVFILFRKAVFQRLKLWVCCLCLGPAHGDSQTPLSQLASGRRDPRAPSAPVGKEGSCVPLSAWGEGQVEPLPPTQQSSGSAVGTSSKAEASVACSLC
5-hydroxytryptamine receptor 5A (Homo sapiens), sequence (P47898 whole entry): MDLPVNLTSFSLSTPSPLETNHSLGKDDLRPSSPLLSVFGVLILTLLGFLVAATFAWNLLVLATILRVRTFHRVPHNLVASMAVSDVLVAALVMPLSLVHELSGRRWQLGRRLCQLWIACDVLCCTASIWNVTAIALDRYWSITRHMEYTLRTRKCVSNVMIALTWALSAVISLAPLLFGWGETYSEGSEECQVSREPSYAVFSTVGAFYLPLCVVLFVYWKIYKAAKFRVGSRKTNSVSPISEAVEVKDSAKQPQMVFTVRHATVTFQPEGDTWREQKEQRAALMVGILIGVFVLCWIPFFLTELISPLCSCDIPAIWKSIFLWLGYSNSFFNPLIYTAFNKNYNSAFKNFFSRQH
Neuromedin-K receptor (Homo sapiens), sequence (P29371 whole entry): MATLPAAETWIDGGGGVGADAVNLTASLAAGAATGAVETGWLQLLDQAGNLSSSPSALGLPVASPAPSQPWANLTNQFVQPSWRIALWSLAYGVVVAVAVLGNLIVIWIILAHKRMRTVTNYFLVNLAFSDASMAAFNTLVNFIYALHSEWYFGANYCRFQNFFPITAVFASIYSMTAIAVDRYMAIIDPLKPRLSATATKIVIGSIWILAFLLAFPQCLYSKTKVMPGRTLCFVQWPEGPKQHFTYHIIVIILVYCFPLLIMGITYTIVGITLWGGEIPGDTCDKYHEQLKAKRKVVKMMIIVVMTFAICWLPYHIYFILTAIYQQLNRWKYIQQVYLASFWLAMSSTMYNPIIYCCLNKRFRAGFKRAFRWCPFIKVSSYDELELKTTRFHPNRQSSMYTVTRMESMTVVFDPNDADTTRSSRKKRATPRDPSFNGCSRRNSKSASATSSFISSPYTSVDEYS
Endothelin receptor type B (Homo sapiens), sequence (P24530 whole entry): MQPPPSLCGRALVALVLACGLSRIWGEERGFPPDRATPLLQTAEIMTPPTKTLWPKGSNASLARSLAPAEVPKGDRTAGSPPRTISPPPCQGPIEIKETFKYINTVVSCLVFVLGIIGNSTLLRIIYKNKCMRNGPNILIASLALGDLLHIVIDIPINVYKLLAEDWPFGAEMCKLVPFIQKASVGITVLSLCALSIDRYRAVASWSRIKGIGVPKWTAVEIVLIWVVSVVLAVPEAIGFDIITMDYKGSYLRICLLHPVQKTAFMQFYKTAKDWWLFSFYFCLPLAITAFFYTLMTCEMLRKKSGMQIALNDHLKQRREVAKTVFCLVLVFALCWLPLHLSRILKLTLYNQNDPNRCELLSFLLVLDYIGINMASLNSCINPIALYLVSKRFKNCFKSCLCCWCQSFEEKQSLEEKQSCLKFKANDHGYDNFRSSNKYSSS
Serine/threonine-protein kinase BRSK2, sequence (Q8IWQ3 whole entry): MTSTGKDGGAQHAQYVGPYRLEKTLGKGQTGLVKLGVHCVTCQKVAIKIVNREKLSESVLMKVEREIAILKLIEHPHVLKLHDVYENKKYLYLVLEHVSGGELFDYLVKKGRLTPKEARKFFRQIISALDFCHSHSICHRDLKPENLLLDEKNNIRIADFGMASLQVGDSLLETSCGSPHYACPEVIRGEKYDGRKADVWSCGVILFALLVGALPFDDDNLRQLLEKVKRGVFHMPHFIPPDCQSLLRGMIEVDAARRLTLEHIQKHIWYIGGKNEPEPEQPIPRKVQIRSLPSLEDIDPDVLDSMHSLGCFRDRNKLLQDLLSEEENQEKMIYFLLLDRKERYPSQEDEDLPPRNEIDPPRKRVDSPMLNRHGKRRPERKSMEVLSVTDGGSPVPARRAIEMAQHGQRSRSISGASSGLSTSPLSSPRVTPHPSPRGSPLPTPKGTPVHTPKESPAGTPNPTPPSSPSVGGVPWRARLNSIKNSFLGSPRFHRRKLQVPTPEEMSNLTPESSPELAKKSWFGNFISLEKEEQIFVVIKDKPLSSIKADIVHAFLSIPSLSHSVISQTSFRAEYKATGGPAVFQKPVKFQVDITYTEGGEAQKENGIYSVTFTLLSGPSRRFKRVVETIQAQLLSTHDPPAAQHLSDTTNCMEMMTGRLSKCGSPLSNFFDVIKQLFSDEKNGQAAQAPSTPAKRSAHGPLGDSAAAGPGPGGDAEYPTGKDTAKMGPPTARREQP

For `Cn1cncc1[C@@](O)(COc1ccc(C#N)cc1-c1ccc(OC(F)(F)F)cc1)c1ccc(C#N)cc1` [A-108], in [1], the inhibition was 7.47%.

Consider `Cn1cncc1[C@](O)(COc1ccc(C#N)cc1-c1ccc(OC(F)(F)F)cc1)c1ccc(C#N)cc1` [ABT-100], for which the inhibition is 21% in data set [2]; 15% in [3]; 30% in data set [5]; 23% in data set [6] (Compound concentration 1.0 uM); 45% in [6] (Compound concentration 3.0 uM); 68% in data set [6] (Compound concentration 10.0 uM). Also, the inhibition in data set [7] was 13%; in data set [8], under 10%; in data set [9] it was 45%; in data set [10], under 10%; in data set [11] it was under 10%; in [12], under 10%. The inhibition was 53% in data set [13]; under 10% in data set [14]; under 10% at Histamine H1 receptor [15]; 12% in data set [16]; 36% in [19]; 30% in data set [20] (Compound concentration 3.0 uM). For the same molecule, the inhibition was 67% in data set [20] (Compound concentration 10.0 uM); -8.65% in data set [21]; under 10% in [23]; under 10% in data set [24]; under 10% in data set [25]; under 10% in data set [26]. The inhibition in [27] (Compound concentration 0.3 uM) was 23%; in data set [27] (Compound concentration 10.0 uM), 60%; in data set [28] it was under 10%; in [29], under 10%; in data set [30] it was under 10%; in data set [31] it was under 10%. For the same molecule, the inhibition in data set [32] was under 10%. The Kd (on Aurora kinase B; in [4]; in [22]; on Ephrin type-A receptor 1) was > 10 µM (not active) throughout. Further, on sodium channel (site 2) (compound concentration 0.3 uM), the inhibition at 0.3 µM is on record as 15% (not active). Also, the inhibition at 1 µM on sodium channel (site 2) (compound concentration 1 uM) is on record as 10% (not active). In addition, the inhibition at 3 µM on sodium channel (site 2) (compound concentration 3 uM) is 22% (not active). At sodium channel (site 2) (compound concentration 10 uM), the inhibition at 10 µM was found to be 58%. Besides, the concentration for half-maximal inhibition (IC50) in data set [17] was 0.05 nM (active). In addition, the inhibitory constant (Ki) on Histamine H1 receptor [18] was determined as 10 µM.

The values above are taken from ChEMBL document CHEMBL4507257, “Data for DCP probe ABT-100” (2021).
